The target in this assay is RIPK1 (recombinant GST-RIPK1 kinase domain, residues 1-327) (Homo sapiens (Human), UniProt Q13546). The experiment in a line: RIPK1-ADP-Glo Enzymatic Assay. In kind it is biochemical. The settings on record: 25 nM GST-RIPK1, 300 μM ATP, 3 μM dephosphorylated-MBP; 30 minutes pre-incubation, 150 minutes reaction; ten-point titration. How it is done:
The enzymatic activity of RIPK1 is measured using an assay derived from ADP-Glo kit (™Promega), which provides a luminescent-based ADP detection system. Specifically, the ADP generated by RIPK1 kinase is proportionally detected as luminescent signals in a homogenous fashion. In this context, the assessment of the inhibitory effect of small molecules (EC50) is measured by the effectiveness of the compounds to inhibit the ATP to ADP conversion by RIPK1.
In this assay, the potency (EC50) of each compound was determined from a ten-point (1:3 serial dilution; top compound concentration of 100000 nM) titration curve using the following outlined procedure. To each well of a white ProxiPlus 384 well-plate, 30 nL of compound (1% DMSO in final assay volume of 3 μL) was dispensed, followed by the addition of 2 μL of 1× assay buffer (25 mM Hepes 7.3, 20 mM MgCl2, 50 mM NaCl, 1 mM DTT, 0.005% Tween20, and 0.02% BSA) containing 37.5 nM of GST-RIPK1 (recombinant GST-RIPK1 kinase domain (residues 1-327) enzyme produced from baculovirus-transfected Sf21 cells: MW=62 kDa). Plates were placed in an ambient temperature humidified chamber for a 30 minutes pre-incubation with compound. Subsequently, each reaction was initiated by the addition of 1 μL 1× assay buffer containing 900 μM ATP and 3 μM dephosphorylated-MBP substrate. The final reaction in each well of 3 μL consists of 25 nM of GST-RIPK1, 300 μM ATP, and 3 μM dephosphorylated-MBP. Kinase reactions were allowed to proceed for 150 minutes prior to adding ADP-Glo reagents per Promega's outlined kit protocol. Dose-response curves were generated by plotting percent effect (% product conversion; Y-axis) vs. Log10 compound concentrations (X-axis). EC50 values were calculated using a non-linear regression, four-parameters sigmoidal dose-response model.
Background: ADP-Glo turns the ADP formed in a reaction into a luminescent signal.
Sequence of RIPK1 (recombinant GST-RIPK1 kinase domain, residues 1-327) (Q13546 1-327): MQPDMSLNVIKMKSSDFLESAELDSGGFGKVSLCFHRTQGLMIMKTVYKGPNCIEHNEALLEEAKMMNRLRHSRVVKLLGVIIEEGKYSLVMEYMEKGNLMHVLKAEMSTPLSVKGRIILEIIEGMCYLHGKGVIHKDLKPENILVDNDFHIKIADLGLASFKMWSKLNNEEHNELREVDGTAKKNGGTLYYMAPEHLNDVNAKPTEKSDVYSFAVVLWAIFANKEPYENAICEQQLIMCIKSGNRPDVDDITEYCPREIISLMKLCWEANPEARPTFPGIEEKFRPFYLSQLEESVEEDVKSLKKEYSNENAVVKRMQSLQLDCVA
The term IC50 denotes the concentration that gives 50% inhibition. Consider `CC1(C(=O)N2C[C@@H]3C[C@H]2c2ccccc2O3)CC1(F)F` (mixture of isomers) [Compound 1-14, [(R and S)-2,2-difluoro-1-methylcyclopropyl]-[(2S,5S)-2,3-dihydro-2,5-methano-1,4-benzoxazepin-4(5H)-yl]methanone], for which the half-maximal inhibitory concentration (IC50) was found to be 313 nM. The figure for `CC1(C(=O)N2C[C@@H]3C[C@H]2c2ccccc2O3)CC1(Cl)Cl` (mixture of isomers) [Compound 1-20, [(R and S)-2,2-dichloro-1-methylcyclopropyl]-[(2S,5S)-2,3-dihydro-2,5-methano-1,4-benzoxazepin-4(5H)-yl]methanone] is 62 nM.

For `CC1(C)CCC1C(=O)N1C[C@@H]2C[C@H]1c1ccccc1O2` (mixture of isomers) [Compound 1-27, [(2S,5S)-2,3-dihydro-2,5-methano-1,4-benzoxazepin-4(5H)-yl]-[(R and S)-2,2-dimethylcyclobutyl] methanone], the IC50 is 921 nM.

As for `C[C@H]1CC[C@@](C)(C(=O)N2C[C@@H]3C[C@H]2c2ccccc2O3)C1(C)C` (racemic) [Compound 1-32, [(2S,5S)-2,3-dihydro-2,5-methano-1,4-benzoxazepin-4(5H)-yl][(1R,3S and 1S,3R)-1,2,2,3-tetramethylcyclopentyl] methanone], the IC50 was 391 nM. As for `O=C(C1CCCCC12CC2)N1C[C@@H]2C[C@H]1c1ccccc1O2` (mixture of isomers) [Compound 1-35, [(2S,5S)-2,3-dihydro-2,5-methano-1,4-benzoxazepin-4(5H)-yl]-[(R and S)-spiro[2.5]octan-4-yl]methanone], the IC50 turned out to be 220 nM. The figure for `CC1(C(=O)N2C[C@@H]3C[C@H]2c2ccccc2O3)CCOC1` (mixture of isomers) [Compound 1-50, [(2S,5S)-2,3-dihydro-2,5-methano-1,4-benzoxazepin-4(5H)-yl]-[(R and S)-3-methyloxolan-3-yl]methanone] is 393 nM.

On to `CC(C)(C)C(=O)N1C2CCC1c1ccccc1OC2` (single isomer, unassigned) [Compound 3-1, 2,2-dimethyl-1-((3S,6R or 3R,6S)-3,4,5,6-tetrahydro-2H-3,6-epiminobenzo[b]oxocin-11-yl)propan-1-one], for which the IC50 was determined as 281 nM. In the case of `O=C(N1C[C@H]2Cc3ccccc3[C@@H]1C2)C12CCC(C(F)(F)F)(CC1)C2` (single isomer, unassigned) [Compound 3-4], the IC50 was found to be 267 nM.

`C[C@@]12C[C@@H](c3ccccc3O1)N(C(=O)C13CCC(CC1)C3)C2` (single isomer, unassigned) [Compound 3-7]: the IC50 is 6580 nM. With `C[C@@]12C[C@@H](c3ccccc3O1)N(C(=O)C13CCC(F)(CC1)C3)C2` (single isomer, unassigned) [Compound 3-8], the IC50 was determined as 3980 nM. On to `C[C@@]12C[C@@H](c3ccccc3O1)N(C(=O)C13CCC(C(F)(F)F)(CC1)C3)C2` (single isomer, unassigned) [Compound 3-9], for which the half-inhibitory concentration (IC50) came to 2410 nM.

Regarding `O=C(NCc1ccc(Cl)cc1)C(=O)N1CC2C[C@H]1c1ccccc1O2` (stereo in doubt) [Compound 1-56, N-[(4-chlorophenyl)methyl]-2-[(2R,5S)-2,3-dihydro-2,5-methano-1,4-benzoxazepin-4(5H)-yl]-2-oxoacetamide], the IC50 was found to be 863 nM. The figure for `CC(C)(C)C(=O)N1C[C@@H]2C[C@H]1c1ccccc1O2` [Compound 1-1, 1-((2S,5S)-2,3-dihydro-2,5-methanobenzo[f][1,4]oxaze-pin-4(5H)-yl)-2,2-dimethylpropan-1-one] is 48 nM; for `CC(C)(C(=O)N1C[C@@H]2C[C@H]1c1ccccc1O2)C(F)F` [Compound 1-2, 1-((2S,5S)-2,3-dihydro-2,5-methanobenzo[f][1,4]oxaze-pin-4(5H)-yl)-3,3-difluoro-2,2-dimethylpropan-1-one] it is 61 nM; for `CC1(C(=O)N2C[C@@H]3C[C@H]2c2ccccc2O3)CCC1` [Compound 1-3, ((2S,5S)-2,3-dihydro-2,5-methanobenzo[f][1,4]oxaze-pin-4(5H)-yl)(1-methylcyclobutyl)methanone] it is 97 nM. For the molecule `O=C(N1C[C@@H]2C[C@H]1c1ccccc1O2)C12CCC(CC1)C2` [Compound 1-4, bicyclo[2.2.1]heptan-1-yl((2S,5S)-2,3-dihydro-2,5-methanobenzo[f][1,4]oxaze-pin-4(5H)-yl)methanone], the IC50 came out at 33 nM. Regarding `CC1(C(=O)N2C[C@@H]3C[C@H]2c2ccccc2O3)CCCCC1` [Compound 1-5, ((2S,5S)-2,3-dihydro-2,5-methanobenzo[f][1,4]oxaze-pin-4(5H)-yl)(1-methylcyclohexyl)methanone], the IC50 is 42 nM. The figure for `CC1(C(=O)N2C[C@@H]3C[C@H]2c2ccccc2O3)CCCC1` [Compound 1-6, ((2S,5S)-2,3-dihydro-2,5-methanobenzo[f][1,4]oxaze-pin-4(5H)-yl)(1-methylcyclopentyl) methanone] is 43 nM. The figure for `CC(C)(COC(F)(F)F)C(=O)N1C[C@@H]2C[C@H]1c1ccccc1O2` [Compound 1-7, 1-((2S,5S)-2,3-dihydro-2,5-methanobenzo[f][1,4]oxaze-pin-4(5H)-yl)-2,2-dimethyl-3-(trifluoromethoxy)propan-1-one] is 217 nM; for `O=C(C1CCCCC1)N1C[C@@H]2C[C@H]1c1ccccc1O2` [Compound 1-8, cyclohexyl((2S,5S)-2,3-dihydro-2,5-methanobenzo[f][1,4]oxaze-pin-4(5H)-yl)methanone] it is 641 nM; for `O=C(N1C[C@@H]2C[C@H]1c1ccccc1O2)C1(F)CCCCC1` [Compound 1-9, ((2S,5S)-2,3-dihydro-2,5-methanobenzo[f][1,4]oxaze-pin-4(5H)-yl)(1-fluorocyclohexyl)methanone] it is 381 nM. For the molecule `O=C(N1C[C@@H]2C[C@H]1c1ccccc1O2)C12CCCC(C1)C2` [Compound 1-10, bicyclo[3.1.1]heptan-1-yl((2S,5S)-2,3-dihydro-2,5-methanobenzo[f][1,4]oxaze-pin-4(5H)-yl)methanone], the IC50 was determined as 138 nM. On to `CC(C)(C(=O)N1C[C@@H]2C[C@H]1c1ccccc1O2)C1CCC1` [Compound 1-11, 2-cyclobutyl-1-[(2S,5S)-2,3-dihydro-2,5-methano-1,4-benzoxazepin-4(5H)-yl]-2-methylpropan-1-one], for which the IC50 was determined as 244 nM. For the molecule `CC(F)(F)C1(C(=O)N2C[C@@H]3C[C@H]2c2ccccc2O3)CCC1` [Compound 1-12, [1-(1,1-difluoroethyl)cyclobutyl] [(2S,5S)-2,3-dihydro-2,5-methano-1,4-benzoxazepin-4(5H)-yl]methanone], the IC50 came out at 86 nM. The figure for `O=C(N1C[C@@H]2C[C@H]1c1ccccc1O2)C1(C(F)F)CCCC1` [Compound 1-13, [1-(difluoromethyl)cyclopentyl] [(2S,5S)-2,3-dihydro-2,5-methano-1,4-benzoxazepin-4(5H)-yl]methanone] is 104 nM; for `CC1(C)C(C(=O)N2C[C@@H]3C[C@H]2c2ccccc2O3)C1(C)C` [Compound 1-15, [(2S,5S)-2,3-dihydro-2,5-methano-1,4-benzoxazepin-4(5H)-yl](2,2,3,3-tetramethylcyclopropyl) methanone] it is 981 nM; for `O=C(N1C[C@@H]2C[C@H]1c1ccccc1O2)C1(C(F)(F)F)CCC1` [Compound 1-16, [(2S,5S)-2,3-dihydro-2,5-methano-1,4-benzoxazepin-4(5H)-yl][1-(trifluoromethyl)cyclobutyl] methanone] it is 96 nM. The figure for `CC(F)(F)C(C)(C)C(=O)N1C[C@@H]2C[C@H]1c1ccccc1O2` [Compound 1-17, 1-[(2S,5S)-2,3-dihydro-2,5-methano-1,4-benzoxazepin-4(5H)-yl]-3,3-difluoro-2,2-dimethylbutan-1-one] is 47 nM; for `CC(C)(C(=O)N1C[C@@H]2C[C@H]1c1ccccc1O2)C(F)(F)F` [Compound 1-18, 1-[(2S,5S)-2,3-dihydro-2,5-methano-1,4-benzoxazepin-4(5H)-yl]-3,3,3-trifluoro-2,2-dimethylpropan-1-one] it is 73 nM; for `O=C(N1C[C@@H]2C[C@H]1c1ccccc1O2)C1(F)CCCC1` [Compound 1-19, [(2S,5S)-2,3-dihydro-2,5-methano-1,4-benzoxazepin-4(5H)-yl](1-fluorocyclopentyl)methanone] it is 499 nM. The figure for `CC(C)(C)CC(=O)N1C[C@@H]2C[C@H]1c1ccccc1O2` [Compound 1-21, 1-[(2S,5S)-2,3-dihydro-2,5-methano-1,4-benzoxazepin-4(5H)-yl]-3,3-dimethylbutan-1-one] is 888 nM. For `CCC(C)(C)C(=O)N1C[C@@H]2C[C@H]1c1ccccc1O2` [Compound 1-22, 1-[(2S,5S)-2,3-dihydro-2,5-methano-1,4-benzoxazepin-4(5H)-yl]-2,2-dimethylbutan-1-one], the IC50 was 21 nM.

For the origin of these results see patent US20240208986A1, “PHENYL AZEPINES AS RIPK1 INHIBITORS AND METHODS OF USE THEREOF” (Merck Sharp & Dohme LLC, priority 2021, published 2024).
